The structures appear in SMILES notation.

We go through 15 molecules from the supplement of paper PMC11003180.

Holding throughout (assay): drug sensitivity score (DSS) from 5-dose viability curve (DSS (area-based score, 0 = no response)); higher = more sensitive (stronger viability inhibition); extreme values may be limits of the assay
Assay [1] relates to MDCK wild-type + doxycycline. The note with it: doxycycline: 10 ng/mL; 72 h. Summed up:
(§1)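 Two MDCK lines, parental and doxycycline-inducible, received doxycycline at 10 ng/mL in the medium before being plated at 2000 cells/well onto a pre-spotted 384-well oncology library of 528 drugs at five doses (1-10,000 nM). Incubation lasted 72 h at 37 °C. Viability was read by CellTiter-Glo luminescence, scaled per plate between vehicle and positive controls, and converted to drug sensitivity scores through Breeze curve fitting.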

Assay [2] relates to MDCK p60AmotL2-inducible + doxycycline (p60AmotL2 expressing). As to conditions: doxycycline: 10 ng/mL; 72 h. The method in brief:
as §1

The test system of assay [3] is MDCK wild-type - doxycycline. The note with it: doxycycline: none; 72 h. The method in brief: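 Parental MDCK cells without doxycycline were dispensed at 2000 cells/well onto pre-spotted 384-well plates. The plates held an oncology library of 528 drugs at five doses (1-10,000 nM) and were incubated 72 h at 37 °C. Viability was read as CellTiter-Glo luminescence and scaled per plate between vehicle and positive controls. Drug sensitivity scores came from dose-response curve fits in the Breeze pipeline.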

`COc1ccc(-c2ccc3c(N4CCOC[C@@H]4C)nc(N4CCOC[C@@H]4C)nc3n2)cc1CO` [AZD8055]: the results for the drug sensitivity score in assay [1], in assay [2] and in assay [3] were 17.8, 22.5 and 14.9, respectively.

Consider `CN1CCN(C2CCN(C(=O)Nc3cc(Oc4ccc(NC(=O)C5(C(=O)Nc6ccc(F)cc6)CC5)c(F)c4)ccn3)CC2)CC1` [Golvatinib], for which the drug sensitivity score is 0 in assay [1], 1 in assay [2] and 0 in assay [3].

In the case of `Cc1cc(-c2nc(-c3ccc(OC(F)(F)F)cc3)no2)nn1Cc1ccnc(N2CCN(C3CC3)CC2)c1` [BAY 87-2243], the drug sensitivity score in assay [1], in assay [2] and in assay [3] was 0 in each case.

Regarding `COc1cc(Br)c(Nc2nc(-c3c(C)nc4ncccn34)cs2)c(Br)c1` [PTC-209], the values for the drug sensitivity score in assay [1], in assay [2] and in assay [3] were 11.4, 13.8 and 9.6, respectively.

`Cc1sc2c(c1C)C(c1ccc(Cl)cc1)=N[C@@H](CC(=O)NCCCCNC(=O)COc1cccc3c1C(=O)N(C1CCC(=O)NC1=O)C3=O)c1nnc(C)n1-2` (stereo not given in full) [dBET1]: the drug sensitivity score in assay [1] was determined as 8; in assay [2] it was 9.3; in assay [3] it was 9.5.

`Nc1cc(COc2c(Cl)cc(C[C@H](N)C(=O)O)cc2Cl)c2oc(-c3ccccc3)nc2c1` [JPH203]: the drug sensitivity score in assay [1], in assay [2] and in assay [3] was 0 each time.

Take `Cc1c(-c2ccc(N3CCc4cccc(C(=O)Nc5nc6ccccc6s5)c4C3)nc2C(=O)O)cnn1CC12CC3CC(CC(C3)C1)C2`: the drug sensitivity score in assay [1], in assay [2] and in assay [3] was 0 each time.

For the molecule `CS(=O)(=O)N1CCN(Cc2cc3nc(-c4cccc5[nH]ncc45)nc(N4CCOCC4)c3s2)CC1` [Pictilisib], the drug sensitivity score in assay [1] worked out at 8.4; in assay [2] it was 14.4; in assay [3] it was 6.9.

For the molecule `CC(C)n1cnc2c(NCCc3ccc(O)cc3)nc(-c3csc4ccccc34)nc21` [StemRegenin 1], the drug sensitivity score worked out at 0.9 in assay [1], 1.5 in assay [2] and 2 in assay [3].

In the case of `CC1CCC(n2c3cnccc3c3cnc(Nc4ccc5c(n4)CCN(C(=O)CO)C5)nc32)CC1` (stereo not given) [AMG-925], the results for the drug sensitivity score in assay [1], in assay [2] and in assay [3] were 0, 1.3 and 0, respectively.

As for `Cc1ncc(-c2ccnc(Nc3ccc(S(C)(=O)=O)cc3)n2)n1C(C)C` [AZD-5438], the figures for the drug sensitivity score in assay [1], in assay [2] and in assay [3] were 13.1, 9.1 and 9.9, respectively.

On to `CCN1CCN(c2ccc(Nc3cc(N(C)C(=O)Nc4c(Cl)c(OC)cc(OC)c4Cl)ncn3)cc2)CC1` [Infigratinib], for which the drug sensitivity score in assay [1], in assay [2] and in assay [3] was 0 in each case.

Turning to `CNC(=O)c1cc(Oc2ccc(NC(=O)Nc3ccc(Cl)c(C(F)(F)F)c3)cc2)ccn1` [Sorafenib], the drug sensitivity score in assay [1], in assay [2] and in assay [3] was 0 throughout.

Take `CC(C)[C@H](C(=O)Nc1ccc(C(=O)NO)cc1)c1ccccc1` [AR-42]: the drug sensitivity score in assay [1] was 12.4; in assay [2] it was 14; in assay [3], 10.4.

Regarding `O=C(O)CNC(=O)c1c(O)c2ccccc2n(Cc2ccccc2)c1=O` [IOX-2], the drug sensitivity score in assay [1], in assay [2] and in assay [3] was 0 throughout.
